Source: patent US20240261354A1, “METHODS FOR IMPROVING BONE QUALITY AND PROMOTING CARTILAGE DIFFERENTIATION BY CHRYSOPHYLLUM CAINITO EXTRACT AND MANUFACTURING METHOD THEREOF” (TCI CO., LTD., priority 2023, published 2024)

Test system: OP9 cells
Test: Test of myricetin promoting osteocalcin secretion
Assay type: cell-based, Murine
Details: 0.03125 mg/mL in differentiation culture medium, 7 days; blank group taken as 100%; ELISA of supernatant
Source text: Experimental cell line: Murine bone marrow stromal cells (hereinafter referred to as OP9 cells) were used, and the OP9 cells were purchased from OP9 cell lines (ATCC CRL-2749™) from the American Type Culture Collection (ATCC®). Cell culture medium: It included […] (Minimum Essential Medium Alpha Medium, purchased from Gibco, product number: Cat. 12000-022), 20% of Fetal Bovine Serum (purchased from Gibco, Cat. 10437-028), and 1% of Penicillin-streptomycin (purchased from Gibco, Cat. 15240-062). Differentiation culture medium: It included 90% of DMEM (Dulbecco's modified Eagle's medium, purchased from Gibco, Cat. 12100-038) added with additional ingredients to make it include 10% of FBS (fetal bovine Serum, purchased from Gibco, 10438-026) and 1% of penicillin-streptomycin (purchased from Gibco, Cat. 15140122), 50 μM of ascorbic acid (purchased from Sigma), 10^−7 M of dexamethasome (purchased from Sigma), and 10 mM of β-glycerol (purchased from Sigma). ELISA Kit for Osteocalcin (OC): Brand: USCN; model: SEA471Mu. Flow cytometer: Purchased from BD Pharmingen Company, model: BDTM Accuri C6 Plus. […] The content of osteocalcin in the supernatant to be detected in each well was measured by the […] to promote osteocalcin secretion analysis. […]

**Q.** For `O=c1c(O)c(-c2cc(O)c(O)c(O)c2)oc2cc(O)cc(O)c12` [myricetin], which relative osteocalcin secretion is on record?
**A.** 121.39%
